Target: T1, Tyrosine-protein kinase receptor UFO (Homo sapiens, UniProt P30530)
T1 sequence (P30530 whole entry): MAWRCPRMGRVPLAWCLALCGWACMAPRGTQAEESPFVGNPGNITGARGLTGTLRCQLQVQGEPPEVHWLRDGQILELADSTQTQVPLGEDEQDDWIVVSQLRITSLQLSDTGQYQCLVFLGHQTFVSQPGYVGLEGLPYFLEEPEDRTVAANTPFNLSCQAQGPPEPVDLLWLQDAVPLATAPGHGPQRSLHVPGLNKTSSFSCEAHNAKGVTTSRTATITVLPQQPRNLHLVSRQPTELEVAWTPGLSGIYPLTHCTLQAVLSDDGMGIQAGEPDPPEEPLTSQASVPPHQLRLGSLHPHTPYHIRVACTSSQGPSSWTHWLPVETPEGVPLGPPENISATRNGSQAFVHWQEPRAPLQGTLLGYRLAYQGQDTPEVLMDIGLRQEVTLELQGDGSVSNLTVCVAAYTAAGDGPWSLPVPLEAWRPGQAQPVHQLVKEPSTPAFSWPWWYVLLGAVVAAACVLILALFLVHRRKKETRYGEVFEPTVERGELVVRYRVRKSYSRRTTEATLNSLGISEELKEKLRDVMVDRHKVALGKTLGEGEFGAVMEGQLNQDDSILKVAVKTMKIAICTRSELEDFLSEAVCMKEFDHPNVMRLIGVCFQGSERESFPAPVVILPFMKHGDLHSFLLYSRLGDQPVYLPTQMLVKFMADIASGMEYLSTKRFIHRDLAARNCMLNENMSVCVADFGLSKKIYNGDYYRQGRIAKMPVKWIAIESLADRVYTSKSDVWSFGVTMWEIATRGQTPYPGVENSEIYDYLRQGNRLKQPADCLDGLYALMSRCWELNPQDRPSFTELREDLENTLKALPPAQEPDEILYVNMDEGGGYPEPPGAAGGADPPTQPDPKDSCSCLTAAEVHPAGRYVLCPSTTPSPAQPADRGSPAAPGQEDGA
Assay: Inhibition of Axl in human HeLa cells assessed as reduction in AKT phosphorylation at Ser 473 residues pre-incubated for 1 hr before preclustered anti-Axl antibody stimulation by Western blot analysis
Format: cell-based
Details: not given

| SMILES | EC50 [nM] |
| --- | --- |
| Nc1nc(Nc2ccc(OCCN3CCCC3)c(F)c2)nn1-c1ccccn1 | 334 |
| Cc1csc2c(-n3nc(Nc4ccc(N5CCN([C@@H]6C[C@H]7CC[C@@H]6C7)CC5)c(Cl)c4)nc3N)nc(Cl)nc12 | 216 |
| COc1cc2ncnc(-n3nc(Nc4ccc(N5CC[C@H](N(C)C)C5)cc4)nc3N)c2cc1OC | 193 |
| Cc1csc2c(-n3nc(Nc4ccc(N5CCN([C@H]6C[C@@H]7CC[C@H]6C7)CC5)c(Cl)c4)nc3N)nc(Cl)nc12 | 136 |
| Nc1nc(Nc2ccc(N3CCN(C4CC5CCC4C5)CC3)c(Cl)c2)nn1-c1ncnc2sccc12 (racemic) | 85 |
| CC(C)(C)c1cc2ncnc(-n3nc(Nc4ccc(N5CCN(C6CC7CCC6C7)CC5)c(Cl)c4)nc3N)c2s1 (racemic) | 84 |

Stronger by EC50, values ahead:

| EC50 [nM] | SMILES |
| --- | --- |
| 39 | COc1cc2ncnc(-n3nc(Nc4ccc(N5CCN(C)CC5)cc4)nc3N)c2cc1OC |
| 55 | COc1cc2ncnc(-n3nc(Nc4ccc(N5CCN(C6CCCCC6)CC5)c(F)c4)nc3N)c2cc1OC |
| 16 | COc1cc2ncnc(-n3nc(Nc4ccc(C5CCN(C)CC5)cc4)nc3N)c2cc1OC |
| 47 | Nc1nc(Nc2ccc(OCCN3CCCC3)c(F)c2)nn1C(=O)c1ccc(N2CCOCC2)cc1 |
| 52 | COc1cc2ncnc(-n3nc(Nc4ccc(OC5CCCN(C)C5)cc4)nc3N)c2cc1OC (configuration not stated) |
| 27 | Nc1nc(Nc2ccc(OCCN3CCCC3)cc2)nn1-c1nc(Cl)nc2ccccc12 |
| 20 | Nc1nc(Nc2ccc(N3CCN(C4CC5CCC4C5)CC3)c(F)c2)nn1-c1ncnc2ccsc12 (racemic) |
| 62 | Cc1csc2c(-n3nc(Nc4ccc(N5CCN(C6CC7CCC6C7)CC5)c(F)c4)nc3N)ncnc12 (racemic) |
| 52 | Nc1nc(Nc2ccc(N3CCN(C4CC5CCC4C5)CC3)cc2)nn1-c1ncnc2c1sc1ncccc12 (racemic) |

Tested on: Mus musculus
Assay: Inhibition of fibroblast growth factor-induced neovascularization in mouse corneal micropocket at 100 mg/kg, bid relative to control
Format: functional
Details: not given

| SMILES | inhibition in vivo at 100 mg/kg [%] |
| --- | --- |
| Cc1csc2c(-n3nc(Nc4ccc(N5CCN([C@H]6C[C@@H]7CC[C@H]6C7)CC5)c(Cl)c4)nc3N)nc(Cl)nc12 | 73 |

Tested on: MDA-MB-231
Assay: Antitumor activity against human MDA-MB-231 cells xenografted in nu/nu mouse assessed as tumor growth inhibition at 125 mg/kg, po bid after 21 days relative to control
Format: functional
Details: MDA-MB-231, po, 504 h, read-out: TGI

| SMILES | inhibition in vivo at 125 mg/kg [%] |
| --- | --- |
| Cc1csc2c(-n3nc(Nc4ccc(N5CCN([C@H]6C[C@@H]7CC[C@H]6C7)CC5)c(Cl)c4)nc3N)nc(Cl)nc12 | 83 |

Tested on: Mus musculus
Assay: Toxicity in nu/nu mouse xenografted with human MDA-MB-231 cells at 85 mg/kg, po bid after 21 days
Format: organism-based
Details: in vivo, 504 h

| SMILES | Activity |
| --- | --- |
| Cc1csc2c(-n3nc(Nc4ccc(N5CCN([C@H]6C[C@@H]7CC[C@H]6C7)CC5)c(Cl)c4)nc3N)nc(Cl)nc12 | Non-Toxic |

Tested on: not listed separately
Assay: Aqueous solubility of the compound
Format: physicochemical
Details: buffer

| solubility | SMILES |
| --- | --- |
| Insoluble | Nc1nc(Nc2ccc(OCCN3CCCC3)c(F)c2)nn1C(=O)c1ccc(N2CCOCC2)cc1 |

Tested on: Mus musculus
Assay: Toxicity in nu/nu mouse xenografted with human MDA-MB-231 cells at 125 mg/kg, po bid after 21 days
Format: organism-based
Details: in vivo, 504 h

| SMILES | Activity |
| --- | --- |
| Cc1csc2c(-n3nc(Nc4ccc(N5CCN([C@H]6C[C@@H]7CC[C@H]6C7)CC5)c(Cl)c4)nc3N)nc(Cl)nc12 | Toxic |

Target: T1, Tyrosine-protein kinase receptor UFO
Assay: Inhibition of N-terminal GST-tagged human Axl (464 to 885 end residues) cytoplasmic domain expressed in baculovirus expression system using HS1 peptide as substrate after 40 mins in presence of ATP by fluorescence polarization assay
Details: not given

| IC50 [nM] | SMILES |
| --- | --- |
| 7 | Nc1nc(Nc2ccc(OCCN3CCCC3)cc2)nn1-c1nc(Cl)nc2ccccc12 |

Tested on: CAKI-1
Assay: Antitumor activity against human Caki1 cells xenografted model assessed as tumor growth inhibition at 85 mg/kg, po bid relative to control
Format: functional
Details: CAKI-1, po, read-out: TGI

| SMILES | inhibition in vivo at 85 mg/kg [%] |
| --- | --- |
| Cc1csc2c(-n3nc(Nc4ccc(N5CCN([C@H]6C[C@@H]7CC[C@H]6C7)CC5)c(Cl)c4)nc3N)nc(Cl)nc12 | 80 |

Tested on: Mus musculus
Assay: Inhibition of fibroblast growth factor-induced neovascularization in mouse corneal micropocket at 50 mg/kg, bid relative to control
Format: functional
Details: not given

| SMILES | inhibition in vivo at 50 mg/kg [%] |
| --- | --- |
| Cc1csc2c(-n3nc(Nc4ccc(N5CCN([C@H]6C[C@@H]7CC[C@H]6C7)CC5)c(Cl)c4)nc3N)nc(Cl)nc12 | 50 |

Tested on: MDA-MB-231
Assay: Antitumor activity against human MDA-MB-231 cells xenografted in nu/nu mouse assessed as tumor growth inhibition at 85 mg/kg, po bid after 21 days relative to control
Format: functional
Details: MDA-MB-231, po, 504 h, read-out: TGI

| SMILES | inhibition in vivo at 85 mg/kg [%] |
| --- | --- |
| Cc1csc2c(-n3nc(Nc4ccc(N5CCN([C@H]6C[C@@H]7CC[C@H]6C7)CC5)c(Cl)c4)nc3N)nc(Cl)nc12 | 69 |

Target: Insulin receptor (Homo sapiens, UniProt P06213)
Assay: Inhibition of insulin stimulated INSR phosphorylation in human HeLa cells preincubated for 1 hr followed by insulin addition measured after 5 mins by Western blot analysis
Format: cell-based
Details: not given

Sequence of Insulin receptor (P06213 28-758 limits assumed): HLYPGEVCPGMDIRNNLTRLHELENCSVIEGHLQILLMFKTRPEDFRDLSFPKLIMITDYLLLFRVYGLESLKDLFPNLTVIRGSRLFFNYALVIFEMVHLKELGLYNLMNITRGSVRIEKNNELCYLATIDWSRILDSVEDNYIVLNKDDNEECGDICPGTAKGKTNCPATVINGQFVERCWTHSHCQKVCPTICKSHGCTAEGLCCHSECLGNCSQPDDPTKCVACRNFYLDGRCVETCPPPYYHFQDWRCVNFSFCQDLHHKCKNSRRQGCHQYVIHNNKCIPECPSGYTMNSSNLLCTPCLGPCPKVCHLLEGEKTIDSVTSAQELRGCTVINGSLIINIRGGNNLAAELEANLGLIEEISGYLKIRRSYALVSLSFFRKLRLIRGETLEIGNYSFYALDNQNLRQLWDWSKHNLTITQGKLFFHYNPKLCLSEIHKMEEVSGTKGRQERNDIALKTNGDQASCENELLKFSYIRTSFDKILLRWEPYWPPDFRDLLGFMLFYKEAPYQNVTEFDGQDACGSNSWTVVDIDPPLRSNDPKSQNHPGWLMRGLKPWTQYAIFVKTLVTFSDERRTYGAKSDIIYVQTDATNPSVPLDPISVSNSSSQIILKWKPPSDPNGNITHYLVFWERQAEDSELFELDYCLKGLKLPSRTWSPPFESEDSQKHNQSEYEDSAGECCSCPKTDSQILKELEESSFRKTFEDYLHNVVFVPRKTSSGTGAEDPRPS
Sequence of Insulin receptor (P06213 763-1382 limits assumed): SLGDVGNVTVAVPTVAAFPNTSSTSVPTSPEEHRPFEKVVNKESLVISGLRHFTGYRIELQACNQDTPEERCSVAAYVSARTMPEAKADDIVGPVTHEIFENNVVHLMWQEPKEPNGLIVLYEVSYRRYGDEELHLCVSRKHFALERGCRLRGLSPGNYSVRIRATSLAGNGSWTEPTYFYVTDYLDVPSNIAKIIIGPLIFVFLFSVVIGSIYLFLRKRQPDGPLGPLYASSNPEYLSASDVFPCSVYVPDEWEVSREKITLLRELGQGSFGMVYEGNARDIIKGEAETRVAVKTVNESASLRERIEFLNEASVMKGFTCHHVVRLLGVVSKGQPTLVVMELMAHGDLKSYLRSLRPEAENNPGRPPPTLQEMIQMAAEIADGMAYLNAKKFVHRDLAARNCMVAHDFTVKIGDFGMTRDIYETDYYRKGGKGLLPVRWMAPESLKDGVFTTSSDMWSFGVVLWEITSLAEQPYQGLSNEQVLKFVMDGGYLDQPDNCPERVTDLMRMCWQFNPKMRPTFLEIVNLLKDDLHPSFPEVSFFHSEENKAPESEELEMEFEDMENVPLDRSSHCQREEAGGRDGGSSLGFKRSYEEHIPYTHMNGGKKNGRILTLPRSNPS

| EC50 [nM] | SMILES |
| --- | --- |
| 4580 | COc1cc2ncnc(-n3nc(Nc4ccc(N5CCN(C)CC5)cc4)nc3N)c2cc1OC |
| 5030 | COc1cc2ncnc(-n3nc(Nc4ccc(N5CCN(C6CCCCC6)CC5)c(F)c4)nc3N)c2cc1OC |
| 4760 | COc1cc2ncnc(-n3nc(Nc4ccc(N5CC[C@H](N(C)C)C5)cc4)nc3N)c2cc1OC |
| 1320 | COc1cc2ncnc(-n3nc(Nc4ccc(C5CCN(C)CC5)cc4)nc3N)c2cc1OC |
| 2750 | Nc1nc(Nc2ccc(OCCN3CCCC3)c(F)c2)nn1C(=O)c1ccc(N2CCOCC2)cc1 |
| 1800 | COc1cc2ncnc(-n3nc(Nc4ccc(OC5CCCN(C)C5)cc4)nc3N)c2cc1OC (configuration not stated) |
| 241 | Nc1nc(Nc2ccc(OCCN3CCCC3)cc2)nn1-c1nc(Cl)nc2ccccc12 |

Tested on: MDA-MB-231
Assay: Antitumor activity against human MDA-MB-231 cells xenografted in nu/nu mouse assessed as tumor growth delay at 125 mg/kg, po bid after 21 days relative to control
Format: functional
Details: not given

| SMILES | Activity [%] |
| --- | --- |
| Cc1csc2c(-n3nc(Nc4ccc(N5CCN([C@H]6C[C@@H]7CC[C@H]6C7)CC5)c(Cl)c4)nc3N)nc(Cl)nc12 | 79 |

Tested on: not listed separately
Assay: Oral bioavailability in Sprague-Dawley rat
Format: ADME, organism-based
Details: in vivo

| bioavailability [%] | SMILES |
| --- | --- |
| < 1 | Nc1nc(Nc2ccc(OCCN3CCCC3)c(F)c2)nn1C(=O)c1ccc(N2CCOCC2)cc1 |

Target: Vascular endothelial growth factor receptor 2 (Homo sapiens, UniProt P35968)
Assay: Inhibition of VEGF stimulated VEGFR2 phosphorylation at […] residues in HUVEC preincubated for 1 hr followed by VEGF addition measured after 5 mins by Western blot analysis
Details: not given

Sequence of Vascular endothelial growth factor receptor 2 (P35968 whole entry): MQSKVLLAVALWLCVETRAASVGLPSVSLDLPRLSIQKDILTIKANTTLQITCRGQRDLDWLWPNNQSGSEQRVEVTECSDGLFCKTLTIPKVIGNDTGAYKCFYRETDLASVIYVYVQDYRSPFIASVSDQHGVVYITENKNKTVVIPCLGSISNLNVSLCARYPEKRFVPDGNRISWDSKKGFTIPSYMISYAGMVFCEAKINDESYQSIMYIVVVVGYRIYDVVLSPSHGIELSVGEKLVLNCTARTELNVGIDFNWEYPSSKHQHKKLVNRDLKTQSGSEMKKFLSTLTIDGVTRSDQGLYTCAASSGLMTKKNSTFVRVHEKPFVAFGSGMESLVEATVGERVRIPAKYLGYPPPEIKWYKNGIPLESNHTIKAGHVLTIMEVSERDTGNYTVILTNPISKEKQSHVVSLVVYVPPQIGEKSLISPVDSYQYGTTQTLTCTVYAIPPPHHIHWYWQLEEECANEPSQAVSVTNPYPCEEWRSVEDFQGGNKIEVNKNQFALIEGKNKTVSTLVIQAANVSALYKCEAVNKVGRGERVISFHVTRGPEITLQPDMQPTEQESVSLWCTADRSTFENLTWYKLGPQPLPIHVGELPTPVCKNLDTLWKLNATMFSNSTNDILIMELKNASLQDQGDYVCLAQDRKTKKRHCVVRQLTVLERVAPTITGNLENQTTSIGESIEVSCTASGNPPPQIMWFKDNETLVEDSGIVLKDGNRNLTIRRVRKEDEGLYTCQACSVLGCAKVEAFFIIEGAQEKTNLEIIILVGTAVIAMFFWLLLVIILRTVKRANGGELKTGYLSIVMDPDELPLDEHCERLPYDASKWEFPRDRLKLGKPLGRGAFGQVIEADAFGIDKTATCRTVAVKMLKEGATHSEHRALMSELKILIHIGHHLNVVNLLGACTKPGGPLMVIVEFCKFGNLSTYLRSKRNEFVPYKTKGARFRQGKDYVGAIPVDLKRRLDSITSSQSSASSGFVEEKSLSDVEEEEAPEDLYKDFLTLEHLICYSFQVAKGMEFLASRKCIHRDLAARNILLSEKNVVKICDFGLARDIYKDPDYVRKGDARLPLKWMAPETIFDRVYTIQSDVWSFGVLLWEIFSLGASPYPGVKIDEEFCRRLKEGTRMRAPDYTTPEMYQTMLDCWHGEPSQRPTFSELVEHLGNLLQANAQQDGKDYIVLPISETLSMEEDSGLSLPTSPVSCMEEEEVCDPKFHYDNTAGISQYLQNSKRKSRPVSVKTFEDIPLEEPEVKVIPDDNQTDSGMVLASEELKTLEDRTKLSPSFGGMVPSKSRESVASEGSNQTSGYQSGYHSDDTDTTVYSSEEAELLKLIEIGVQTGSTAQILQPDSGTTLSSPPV

| SMILES | EC50 [nM] |
| --- | --- |
| COc1cc2ncnc(-n3nc(Nc4ccc(N5CC[C@H](N(C)C)C5)cc4)nc3N)c2cc1OC | 19 |
| Nc1nc(Nc2ccc(N3CCN(C4CC5CCC4C5)CC3)c(Cl)c2)nn1-c1ncnc2sccc12 (racemic) | 160 |
| CC(C)(C)c1cc2ncnc(-n3nc(Nc4ccc(N5CCN(C6CC7CCC6C7)CC5)c(Cl)c4)nc3N)c2s1 (racemic) | 80 |

The next lines start with the values.

| EC50 [nM] | SMILES |
| --- | --- |
| 3 | COc1cc2ncnc(-n3nc(Nc4ccc(N5CCN(C)CC5)cc4)nc3N)c2cc1OC |
| 26 | COc1cc2ncnc(-n3nc(Nc4ccc(N5CCN(C6CCCCC6)CC5)c(F)c4)nc3N)c2cc1OC |
| 14 | COc1cc2ncnc(-n3nc(Nc4ccc(C5CCN(C)CC5)cc4)nc3N)c2cc1OC |
| 4 | COc1cc2ncnc(-n3nc(Nc4ccc(OC5CCCN(C)C5)cc4)nc3N)c2cc1OC (configuration not stated) |
| 90 | Cc1csc2c(-n3nc(Nc4ccc(N5CCN(C6CC7CCC6C7)CC5)c(F)c4)nc3N)ncnc12 (racemic) |
| 24 | Nc1nc(Nc2ccc(N3CCN(C4CC5CCC4C5)CC3)cc2)nn1-c1ncnc2c1sc1ncccc12 (racemic) |
